# Laboratory results reported in ChEMBL document CHEMBL4017465 (Bioorg Med Chem Lett, 2017).
# Assays:
# [1] = target: T1, Cytochrome P450 1A2 (Homo sapiens, UniProt P05177); assay: Inhibition of recombinant human CYP1A2 expressed in insect cells using EOMCC as substrate pretreated for 10 mins followed by substrate addition measured every minute for 15 mins in presence of NADP+ by fluorescence assay; format: ADME
# T1 sequence (P05177 whole entry): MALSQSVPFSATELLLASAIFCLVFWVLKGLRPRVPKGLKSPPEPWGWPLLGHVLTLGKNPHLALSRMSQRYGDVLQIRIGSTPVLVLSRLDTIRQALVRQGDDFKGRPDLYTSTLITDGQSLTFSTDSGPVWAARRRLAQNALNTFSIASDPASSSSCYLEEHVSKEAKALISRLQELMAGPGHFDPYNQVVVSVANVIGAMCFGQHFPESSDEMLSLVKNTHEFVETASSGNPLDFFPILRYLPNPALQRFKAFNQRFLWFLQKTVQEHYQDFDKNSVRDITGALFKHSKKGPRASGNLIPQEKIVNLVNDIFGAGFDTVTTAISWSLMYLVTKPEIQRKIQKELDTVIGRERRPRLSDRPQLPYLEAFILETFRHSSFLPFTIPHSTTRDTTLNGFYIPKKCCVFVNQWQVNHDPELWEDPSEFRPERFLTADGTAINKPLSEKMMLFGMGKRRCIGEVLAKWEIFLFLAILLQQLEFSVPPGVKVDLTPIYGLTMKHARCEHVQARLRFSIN
# [2] = target: Cytochrome P450 3A4 (Homo sapiens, UniProt P08684); assay: Inhibition of recombinant human CYP3A4 expressed in insect cells using DBOMF as substrate pretreated for 10 mins followed by substrate addition measured every minute for 15 mins in presence of NADP+ by fluorescence assay; format: ADME
# [3] = target: T2, CYP1A2 (Homo sapiens, UniProt P05177); assay: Inhibition of recombinant human CYP1A2 expressed in insect cells at <10 uM using EOMCC as substrate pretreated for 10 mins followed by substrate addition measured every minute for 15 mins in presence of NADP+ by fluorescence assay relative to control; format: ADME; settings: probe EOMCC
# T2 sequence (P05177 whole entry): T1 sequence (P05177 whole entry)
# [4] = target: T3, CYP3A4 (Homo sapiens, UniProt P08684); assay: Inhibition of recombinant human CYP3A4 expressed in insect cells at 100 uM using DBOMF as substrate pretreated for 10 mins followed by substrate addition measured every minute for 15 mins in presence of NADP+ by fluorescence assay relative to control; format: ADME; settings: probe DBOMF
# [5] = target: T2, CYP1A2; assay: Inhibition of recombinant human CYP1A2 expressed in insect cells at 1 uM using EOMCC as substrate pretreated for 10 mins followed by substrate addition measured every minute for 15 mins in presence of NADP+ by fluorescence assay relative to control; settings: probe EOMCC
# [6] = target: T2, CYP1A2; assay: Inhibition of recombinant human CYP1A2 expressed in insect cells at 10 uM using EOMCC as substrate pretreated for 10 mins followed by substrate addition measured every minute for 15 mins in presence of NADP+ by fluorescence assay relative to control; settings: probe EOMCC
# [7] = target: T2, CYP1A2; assay: Inhibition of recombinant human CYP1A2 expressed in insect cells at 20 uM using EOMCC as substrate pretreated for 10 mins followed by substrate addition measured every minute for 15 mins in presence of NADP+ by fluorescence assay relative to control; settings: probe EOMCC
# [8] = target: T2, CYP1A2; assay: Inhibition of recombinant human CYP1A2 expressed in insect cells at 0.01 uM using EOMCC as substrate pretreated for 10 mins followed by substrate addition measured every minute for 15 mins in presence of NADP+ by fluorescence assay relative to control; settings: probe EOMCC
# [9] = target: T2, CYP1A2; assay: Inhibition of recombinant human CYP1A2 expressed in insect cells at >1 uM using EOMCC as substrate pretreated for 10 mins followed by substrate addition measured every minute for 15 mins in presence of NADP+ by fluorescence assay relative to control; format: ADME; settings: probe EOMCC
# [10] = target: T3, CYP3A4; assay: Inhibition of recombinant human CYP3A4 expressed in insect cells at >= 1 uM using DBOMF as substrate pretreated for 10 mins followed by substrate addition measured every minute for 15 mins in presence of NADP+ by fluorescence assay relative to control; settings: probe DBOMF
# T3 sequence (P08684 whole entry): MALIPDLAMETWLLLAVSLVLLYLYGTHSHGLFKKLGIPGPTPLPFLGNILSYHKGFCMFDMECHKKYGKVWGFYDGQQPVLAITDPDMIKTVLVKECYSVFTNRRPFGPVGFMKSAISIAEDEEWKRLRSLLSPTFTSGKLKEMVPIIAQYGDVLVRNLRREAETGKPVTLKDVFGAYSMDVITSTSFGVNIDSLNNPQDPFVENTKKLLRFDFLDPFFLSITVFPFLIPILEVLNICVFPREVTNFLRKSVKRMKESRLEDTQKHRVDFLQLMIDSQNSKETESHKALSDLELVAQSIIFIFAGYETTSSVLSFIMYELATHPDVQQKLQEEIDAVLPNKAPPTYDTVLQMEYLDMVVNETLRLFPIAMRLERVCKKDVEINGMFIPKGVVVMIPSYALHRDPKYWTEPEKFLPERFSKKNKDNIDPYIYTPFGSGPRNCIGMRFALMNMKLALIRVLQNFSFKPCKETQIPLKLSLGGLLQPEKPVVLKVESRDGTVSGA
# Chain of Cytochrome P450 3A4 (P08684 whole entry): as above
Compound,IC50 [1] [µM],IC50 [2] [µM],inhibition at 0.25 h [3] [%],"inhibition at 0.25 h, 100 µM [4] [%]",also measured
COc1ccc(CNc2c3c(nc4cc(Cl)ccc24)CCCC3)cc1OC,8.5,13.8,< 50,90,–
Nc1c2c(nc3ccccc13)CCCC2 [TACRINE],1.5,–,–,55,"inhibition at 0.25 h, 1 µM [5]: 45%; inhibition at 0.25 h, 10 µM [6]: 75%; inhibition at 0.25 h, 20 µM [7]: 75%; inhibition at 0.25 h, 0.01 µM [8]: 14%"
COc1ccc(CNc2c3c(nc4ccccc24)CCCC3)cc1OC,33,3.7,< 50,90,–
Clc1ccc2c(NCc3ccccn3)c3c(nc2c1)CCCC3,0.24,9.1,–,90,inhibition at 0.25 h [9]: > 80%
COc1ccc(CCNc2c3c(nc4cc(Cl)ccc24)CCCC3)cc1OC,22.3,–,< 50,–,–
O=c1cc(-c2ccccc2)oc2c1ccc1ccccc12 [ALPHA-NAPHTHOFLAVONE],–,–,–,–,"inhibition at 0.25 h, 1 µM [5]: > 80%"
CC(=O)N1CCN(c2ccc(OCC3COC(Cn4ccnc4)(c4ccc(Cl)cc4Cl)O3)cc2)CC1 (configuration not stated) [KETOCONAZOLE],–,–,–,–,inhibition at 0.25 h [10]: > 85%
